Data: patent US7317028B2, “Cell differentiation inducer” (Schering Aktiengesellschaft, priority 1996, dated 2008)
Where a name gives a salt, the structure may show the parent alone.

Tested on: A2780 cells
Assay: Test for induction of differentiation in A2780 cells (ALP activity, ALPmin)
Format: cell-based, human
Conditions: not given
Description: Increase of alkaline phosphatase (ALP) activity is known as an indicator for differentiation of human colon cancer cells. […] Thus, differentiation inducing action was evaluated using ALP activity as an indicator.
To each well of a 96-well plate was placed 0.1 mL of A2780 cells (15,000 cells/well) and the next day was added 0.1 mL of a sequential dilute of test solution with the medium. […] The reaction was quenched with 0.05 mL/well of 3N sodium hydroxide aq. For each well, an absorbance at 405 nm was measured to determine the minimum concentration of the drug inducing increase of ALP activity (ALPmin).

Structure (SMILES) | minimal effective concentration [µM]
CN(Cc1ccc(C(=O)Nc2ccccc2N)cc1)C(=O)COc1cccnc1 [Example 44, N-(2-aminophenyl)-4-[N-methyl-N-(pyridin-3-yl)oxyacetyl]aminomethylbenzamide] | 0.01

Same assay, conditions: A2780 cells, 3 days incubation; minimum concentration of the drug inducing increase of ALP activity

Structure (SMILES) | minimal effective concentration [µM]
Nc1ccccc1NC(=O)c1ccc(CNC(=S)Nc2cccc([N+](=O)[O-])c2)cc1 [Example 93, N-(2-aminophenyl)-4-[N′-(3-nitrophenyl)thioureidomethyl]benzamide] | 3
Cc1ncsc1CCOC(=O)NCc1ccc(C(=O)Nc2ccccc2N)cc1 [Example 64, N-(2-aminophenyl)-4-C[N-[2-(4-methylthiazol-5-yl)ethoxycarbonyl]aminomethyl]benzamide] | 3
Nc1cccc(NC(=O)NCc2ccc(C(=O)Nc3ccccc3N)cc2)c1 [Example 90, N-(2-aminophenyl)-4-[N′-(3-aminophenyl)ureidomethyl]benzamide] | 3
Cn1cccc1C(=O)NCc1ccc(C(=O)Nc2ccccc2N)cc1 [Example 24, N-(2-aminophenyl)-4-[N-(N′-methyl-1H-pyrrol-2-yl)carbonylaminomethyl]benzamide] | 1
Nc1ccccc1NC(=O)c1ccc(CNC(=O)NCc2cccnc2)cc1 [Example 89, N-(2-aminophenyl)-4-[N′-(pyridin-3-ylmethyl)ureidomethyl]benzamide] | 0.3
Nc1ccccc1NC(=O)c1cc2cc(NC(=O)CCc3cccnc3)ccc2o1 [Example 128, N-(2-aminophenyl)-5-[3-(pyridin-3-yl)propionamide]benzofuran-2-carboxyamide] | 0.1
Nc1ccccc1NC(=O)c1ccc(CN2CCN(Cc3cccnc3)C2=O)cc1 [Example 145, N-(2-aminophenyl)-4-[3-(pyridin-3-yl)methylimidazolin-2-on-1-yl]methylbenzamide] | 3
Nc1ccc(F)cc1NC(=O)c1ccc(CNC(=O)NCc2cccnc2)cc1 [Example 94, N-(2-amino-5-fluorophenyl)-4-[N′-(pyridin-3-yl)methylureidomethyl]benzamide] | 3
Nc1ccccc1NC(=O)c1ccc(N2CC(COc3ccc([N+](=O)[O-])cc3)OC2=O)cc1 (stereo not shown) [Example 137, N-(2-aminophenyl)-4-[5-(4-nitrophenoxy)methyl-1,3-oxazolin-2-on-3-yl-yl]benzamide] | 1
Nc1ccccc1NC(=O)c1ccc(CNC(=O)Nc2cccnc2)cc1 [Example 91, N-(2-aminophenyl)-4-[N′-(pyridin-3-yl)ureidomethyl]benzamide] | 0.1
O=C(NCc1ccc(C(=O)Nc2ccccc2O)cc1)NCc1cccnc1 [Example 95, N-(2-hydroxyphenyl)-4-[N′-(pyridin-3-yl)methylureidomethyl]benzamide] | 3

Same assay, conditions: Homo sapiens, 72 h; A2780 cells, 3 days incubation; minimum concentration of the drug inducing increase of ALP activity

Structure (SMILES) | minimal effective concentration [µM]
Nc1ccccc1NC(=O)c1ccc(NC(=O)Cc2ccccc2[N+](=O)[O-])cc1 [Example 103, N-(2-aminophenyl)-4-[(2-nitrophenylacetyl)amino]benzamide hydrochloride] | 1
Nc1ccccc1NC(=O)c1ccc(CNC(=O)OCc2cccnc2Cl)cc1 [Example 58, N-(2-aminophenyl)-4-[N-(2-chloropyridin-3-yl)methoxycarbonylaminomethyl]benzamide] | 3
Nc1ccccc1NC(=O)c1ccc(-n2cc(COc3ccccc3)oc2=O)cc1 [Example 136, N-(2-aminophenyl)-4-(5-phenoxymethyl-1,3-oxazolin-2-on-3-yl)benzamide] | 1
Nc1ccccc1NC(=O)c1ccc(CN(Cc2cccnc2)C(=O)OCc2cccnc2)cc1 [Example 79, N-(2-aminophenyl)-4-[N-(pyridin-3-yl)methyl-N-(pyridin-3-yl)methoxycarbonylaminomethyl]benzamide] | 0.1
Nc1ccccc1NC(=O)c1ccc(-n2cc(COc3ccccn3)oc2=O)cc1 [Example 143, N-(2-aminophenyl)-4-[5-(pyridin-2-yl)oxymethyl-1,3-oxazolin-2-on-3-yl]benzamide] | 3
Nc1ccccc1NC(=O)c1ccc(NC(=O)OCCc2cccnc2)cc1 [Example 86, N-(2-aminophenyl)-4-[N-[2-(pyridin-3-yl)ethoxycarbonyl]amino]benzamide] | 0.3
Nc1ccccc1NC(=O)c1ccc(-n2cc(COc3cccnc3)oc2=O)cc1 [Example 139, N-(2-aminophenyl)-4-[5-(pyridin-3-yl)oxymethyl-1,3 oxazolin-2-on-3-yl]benzamide] | 0.3
Nc1ccc(NC(=O)c2ccc(CNC(=O)OCc3cccnc3)cc2)cc1 [Comp. Ex. 2, N-(4-aminophenyl)-4-[N-(pyridin-3-yl)methoxycarbonylaminomethyl]benzamide, reference compound] | > 100
Nc1ccccc1NC(=O)c1ccc(CNC(=O)c2c[nH]cn2)cc1 [Example 27, N-(2-aminophenyl)-4-[N-(imidazol-4-yl)carbonylaminomethyl]benzamide] | 10
Nc1ccccc1NC(=O)c1ccc(NC(=O)CCCc2ccccc2)cc1 [Example 101, N-(2-aminophenyl)-4-[(4-phenylbutanoyl)amino]benzamide] | 3
O=C(CCc1cccnc1)NCc1ccc(C(=O)Nc2ccccc2O)cc1 [Example 40, N-(2-hydroxyphenyl)-4-[N-[3-(pyridin-3-yl)propionyl]aminomethyl]benzamide] | 10
COc1ccc(CC(=O)Nc2ccc(C(=O)Nc3ccccc3N)cc2)cc1 [Example 107, N-(2-aminophenyl)-4-[(4-methoxyphenylacetyl)amino]benzamide] | 1
Nc1ccccc1NC(=O)c1ccc(COC(=O)NCCCn2ccnc2)cc1 [Example 99, N-(2-aminophenyl)-4-[3-(imidazol-1-yl)propylaminocarbonyloxymethyl]benzamide] | 3
Nc1ccccc1NC(=O)c1ccc(CNC(=O)OCc2ccccc2)cc1 [Example 49, N-(2-aminophenyl)-4-[N-(benzyloxycarbonyl)aminomethyl]benzamide] | 1
Nc1cccc(NC(=O)c2ccc(CNC(=O)OCc3cccnc3)cc2)c1 [Comp. Ex. 1, N-(3-aminophenyl)-4-[N-(pyridin-3-yl)methoxycarbonylaminomethyl]benzamide, reference compound] | > 100
CN1CCN(COC(=O)NCc2ccc(C(=O)Nc3ccccc3N)cc2)CC1 [Example 66, N-(2-aminophenyl)-4-[N-(4-methylpiperazin-1-yl)methoxycarbonylaminomethyl]benzamide] | 3
Nc1ccccc1NC(=O)c1ccc(NC(=O)Cc2ccc(Cl)cc2)cc1 [Example 102, N-(2-aminophenyl)-4-[(4-chlorophenylacetyl)amino]benzamide] | 3
Nc1ccc(F)cc1NC(=O)c1ccc(CNC(=O)OCc2cccnc2)cc1 [Example 70, N-(2-amino-5-fluorophenyl)-4-[N-(pyridin-3-yl)methoxycarbonylaminomethyl]benzamide] | 0.1
O=C(Nc1ccccc1O)c1ccc(CN(Cc2cccnc2)C(=O)OCc2cccnc2)cc1 [Example 81, N-(2-hydroxyphenyl)-4-[N-(pyridin-3-yl)methyl-N-(pyridin-3-yl)methoxycarbonylaminomethyl]benzamide] | 10
Nc1ccccc1NC(=O)c1ccc(CNC(=O)CNc2cccnc2)cc1 [Example 35, N-(2-aminophenyl)-4-[N-[N-(pyridin-3-yl)aminoacetyl]aminomethyl]benzamide] | 0.3
Nc1ccccc1NC(=O)c1ccc(NC(=O)Cc2ccc(C(F)(F)F)cc2)cc1 [Example 109, N-(2-aminophenyl)-4-[(4-trifluoromethylphenylacetyl)amino]benzamide] | 1
Nc1ccc(OCC(=O)Nc2ccc(C(=O)Nc3ccccc3N)cc2)cc1 [Example 135, N-(2-aminophenyl)-4-[(4-aminophenoxyacetyl)amino]benzamide] | 3
Cc1ccc(C(=O)NCc2ccc(C(=O)Nc3ccccc3N)cc2)cc1 [Example 4, N-(2-aminophenyl)-4-[N-(4-methylbenzoyl)aminomethyl]benzamide hydrochloride] | 1
O=C(COc1cccnc1)NCc1ccc(C(=O)Nc2ccccc2O)cc1 [Example 41, N-(2-hydroxyphenyl)-4-[N-(pyridin-3-yl)oxyacetylaminomethyl]benzamide] | 0.3
Nc1ccccc1NC(=O)c1ccc(CN(CCCc2cccnc2)C(=O)OCc2cccnc2)cc1 [Example 80, N-(2-aminophenyl)-4-[N-[3-(Pyridin-3-yl)propyl]-N-(pyridin-3-yl)methoxycarbonylaminomethyl]benzamide] | 0.1
Nc1ccccc1NC(=O)c1ccc(CN(CCCc2cccnc2)C(=O)COc2cccnc2)cc1 [Example 43, N-(2-aminophenyl)-4-[N-(pyridin-3-yl)oxyacetyl-N-[3-(pyridin-3-yl)propyl]aminomethyl]benzamide] | 3
Nc1ccccc1NC(=O)c1ccc(NC(=O)CCc2cccnc2)cc1Cl [Example 113, N-(2-aminophenyl)-2-chloro-4-[3-(pyridin-3-yl)propanoylamino]benzamide] | 0.3
Nc1ccccc1NC(=O)c1ccc(CNC(=O)c2ccc(C(=O)O)cc2)cc1 [Example 10, N-(2-aminophenyl)-4-[N-(4-carboxybenzoyl)aminomethyl]benzamide hydrochloride] | 3
